Experimental data: patent US20050159364A1, “Copper antagonist compounds” (priority 2003, published 2005)
Several values for one entry are separate records, joined by “and”; a condition that tells them apart may be missing. Identical values can stand only once. Entries after “also recorded” stand apart in the source; their conditions may differ. Counter-ions that a name gives are not always drawn. Like-named read-outs stand apart in the source and are kept apart here. Marks after values point to notes of the source that are not given here. One block for each compound: values may come before it.

Key:
Male Wistar rats = test: Effects of streptozotocin (STZ) treatment in rats; assay type: in vivo, rat
Source text: Male Wistar rats (n=28, 303±2.9 g) were divided randomly into STZ-treated and non-treated groups. […] Non-treated animals received an equivalent volume of saline. […] Blood glucose and body weight were measure at day 3 following STZ/saline injection and then weekly throughout the study.

[1] = 0.9% saline, 0.67-670 mg/ml, four months at 4° C.
Procedure: The concentrations of the stock formulations were:0.67 mg/ml, 6.7 mg/ml, 67 mg/ml, and 670 mg/ml. The formulation was then administered to the rats in doses of 0.1 mg/kg, 1 mg/kg, 10 mg/kg, and 100 mg/kg to the animals respectively.

Tg2576 transgenic mice = details: oral treatment, nine weeks for clioquinol; cited from earlier work
humans with T2DM = test: 6-month double-blind placebo-controlled oral trientine trial, LV mass by cardiac MRI
Source text: Subjects (30-70 y) who provided written informed consent were eligible for inclusion if they had:T2DM with HbA1c>7%; cardiac ejection fraction (echocardiography)≧45% with evidence of diastolic dysfunction but no regional wall-motion anomalies; no new medications for more than 6 months with no change of β-blocker dose; normal electrocardiogram (sinus rhythm, normal PR Interval, normal T wave and QRS configuration, and isoelectric ST segment); and greater than 90% compliance with single-blinded placebo therapy during a 2-w run-in period. Women were required to be post-menopausal, surgically sterile, or non-lactating and non-pregnant and using adequate contraception.
Before randomization, potentially eligible subjects entered a 4-w single blind run-in phase of two placebo-capsules twice-daily and underwent screening echocardiography, being excluded if regional wall motion abnormalities or impaired LV systolic function (ejection fraction <50%) were detected. In addition, LV diastolic filling was assessed using mitral inflow Doppler (with pre-load reduction) to ensure patients had abnormalities of diastolic filling; no patient with normal mitral filling proceeded to randomisation. […] The double-blind treatment was continued for 6 months in each subject.
At baseline and following 6 months' treatment, LV mass was determined using cardiac MRI, performed in the supine position with the same 1.5 T scanner (Siemens Vision) using a phased array surface coil. Prospectively gated cardiac cine images were acquired in 6 short axis and 3 long axis slices with the use of a segmented k-space pulse sequence (TR 8 ms; TE 5 ms; flip angle 10°; field of view 280-350 mm) with view sharing (11-19 frames.slice^−1). Each slice was obtained during a breath-hold of 15-19 heartbeats. The short axis slices spanned the left ventricle from apex to base with a slice thickness of 8 mm and inter-slice gap of 2-6 mm. The long axis slices were positioned at equal 60° intervals about the long axis of the LV. […] LV-mass and volume were calculated using guide point modeling, which produces precise and accurate estimations of mass and volume. Briefly, a three dimensional mathematical model of the LV was interactively fitted to the epicardial and endocardial boundaries of the LV wall in each slice of the study, simultaneously. Volume and mass were then calculated from the model by numerical integration (mass=wall volume×1.05 g.ml^−1). All measurements were performed by 1 measurer at the end of six months' data collection. Outcome analyses were conducted by intention-to-treat, using a maximum likelihood approach to impute missing at random data within a mixed model, and marginal least-squares adjusted-means were determined. Changes from baseline were compared between treatment-groups in the mixed model with baseline values entered as covariate. Since there were only 2 groups in the main effect and no interaction effect, no post hoc procedures were employed. In additional analysis the influence of clinically important differences between the treatment groups at baseline was considered by adjusting for them as covariates in an additional model. All P values were calculated from 2-tailed tests of statistical significance and a 5% significance level was maintained throughout. The effect of treatment on categorical variables was tested using the procedures of Mantel and Haenzel (SAS v8.01, SAS Institute).

[2] = system: STZ-treated and non-STZ-treated rats; details: for Cu content of heart tissue / Fe content of heart tissue: mean ± SEM
Procedure: Methods were carried out as follows. Spectrophotometric analysis was conducted as described in Example 2. Cu, Fe and Zn in tissue digests were determined at Hill Laboratories (Hamilton, New Zealand) using either a PE Sciex Elan-6000 or PE Sciex Elan-6100 DRC ICP-MS.
Sample pre-treatment was carried out as follows. Heart:Following removal from the animal, the heart was cleaned of excess tissue, rinsed in buffer to remove excess blood, blotted dry and a wet ventricular weight recorded. Using titanium instruments a segment of left ventricular muscle was dissected and placed in a pre-weighed 5.0 ml polystyrene tube. The sample was freeze-dried overnight to constant weight before 0.45 ml of 69% Aristar grade HNO3 was added. The sample tube was heated in a water bath at 65° C. for 60 minutes. The sample was brought to 4.5 ml with Milli-Q H2O. The resulting solution was diluted 2:1 in order to reduce the HNO3 concentration below the maximum permitted for ICP-MS analysis.

[3] = system: STZ-treated and non-STZ-treated rats; details: for Serum Cu: trientine i.v. 0.1-100 mg.kg^−1 hourly, terminal sample; for Serum Fe: trientine i.v.
Source text: All animals were fasted overnight prior to surgery but continued to have ad libitum access to deionized water. […] The femoral artery and vein were cannulated with a solid-state blood pressure transducer (Mikrotip™ 1.4F, Millar Instruments, Texas, USA) and a saline filled PE 50 catheter respectively. The ureters were exposed via a midline abdominal incision, cannulated using polyethylene catheters (external diameter 0.9 mm, internal diameter 0.5 mm) and the wound sutured closed. The trachea was cannulated and the animal ventilated at 70-80 breaths.min^−1 with air supplemented with O2 (Pressure Controlled Ventilator, Kent Scientific, Conn., USA). The respiratory rate and end-tidal pressure (10-15 cmH2O) were adjusted to maintain end-tidal CO2 at 35-40 mmHg (SC-300 CO2 Monitor, Pryon Corporation, Wisconsin, USA). Body temperature was maintained at 37° C. throughout surgery and the experiment by a heating pad. Estimated fluid loss was replaced with intravenous administration of 154 mmol.l^−1 NaCl solution at a rate of 5 ml.kg^−1.h^−1.
(§1) Following surgery and a 20 min stabilization period, the experimental protocol was started. […] Control animals received an equivalent volume of saline. Urine was collected in 15 min aliquots throughout the experiment in pre-weighed polyethylene epindorf tubes. At the end of the experiment a terminal blood sample was taken by cardiac puncture and the separated serum stored at −80° C. until future analysis. Hearts were removed through a rapid mid-sternal thoracotomy and processed as described below.
Urine and tissue analysis was carried out as follows. Instrumentation:A Perkin Elmer (PE) Model 3100 Atomic Absorption Spectrophotometer equipped with a PE HGA-600 Graphite Furnace and PE AS-60 Furnace Autosampler was used for Cu and Fe determninations in urine. Deuterium background correction was employed. A Cu or Fe hollow-cathode lamp (Perkin Elmer Corporation) was used and operated at either 10 W (Cu) or 15 W (Fe). The 324.8 nm atomic line was used for Cu and the 248.3 nm atomic line for Fe. The slit width for both Cu and Fe was 0.7 nm. Pyrolytically coated graphite tubes were used for all analyses. The injection volume was 20 μL. A typical graphite furnace temperature program is shown below:
Sample pretreatment was carried out as follows. Urine:Urine was collected in pre-weighed 1.5 ml micro test tubes (eppendorf). After reweighing, the urine specimens were centrifuged and the supernatant diluted 25:1 with 0.02 M 69% Aristar grade HNO3. The sample was stored at 4° C. prior to GF-AAS analysis. If it was necessary to store a sample for a period in excess of 2 weeks, it was frozen and kept at −20° C. Serum:Terminal blood samples were centrifuged and serum treated and stored as per urine until analysis. From the trace metal content of serum from the terminal blood sample and urine collected over the final hour of the experiment, renal clearance was calculated using the following equation: [formula]

[4] = system: male humans with T2DM and matched non-diabetic controls
Source text: Methods were as follows. Human studies were approved by institutional ethics and regulatory committees. We measured urinary metal excretion in human males with T2DM or matched non-diabetic controls, baseline information on which is shown in Table 9, in a randomized, double blind, placebo-controlled trial. Males with uncomplicated T2DM (Table 9) underwent 12-d elemental balance studies in a fully residential metabolic unit. All foods and beverages were provided. Total daily intake (method of double diets) and excretion (urinary and fecal) of trace elements (Ca, Mg, Zn, Fe, Cu, Mn, Mo, Cr and Se) were determined (ICP MS).

[5] = system: STZ-treated and normal rats; test: Isolated working heart function after 7 weeks oral trientine
[6] = system: STZ-treated and non-STZ-treated rats; details: highest dose 100 mg/kg i.v., 2 min following administration
Procedure: as §1
Mean arterial pressure (MAP), heart rate (HR, derived from the MAP waveform) oxygen saturation (Nonin 8600V Pulse Oximeter, Nonin Medical Inc., Minnesota, USA) and core body temperature, were all continuously monitored throughout the experiment using a PowerLab/16s data acquisition module (AD Instruments, Australia).
Following surgery and a 20 min stabilization period, the experimental protocol was started. […] Urine was collected throughout the experiment in 15 min aliquots.

[7] = system: humans with T2DM or matched controls; details: for Mean CU Losses, fecal, Post-Tment: n = 10, oral 2.4 g once daily
Procedure: Total metal balance studies were performed in a residential metabolic unit. Total fecal outputs were collected daily for 12 days, freeze dried, and analyzed by ICP-MS for content of Cu, Fe, Zn, Ca, Mg, Mn, Cr, […] and Se.

[8] = 15 days
Procedure: One sample of the solution was stored in the dark at 4° C. and 21° C. in the dark and a third sample was stored at 21° C. in daylight.
The Ultraviolet-visible spectrum of the formulation was initially measured at day 0 and then at day 15. 20 μl aliquots of sample solutions were taken at day 15. For each aliquot 960 μl of 50 mM TRIS buffer and 20 μl aliquot of Copper Nitrate standard (100 mM—Orion Research Inc) were added.

[9] = system: STZ-treated and non-STZ-treated rats; test: Left ventricular histology by LCM and TEM after oral trientine
[10] = STZ-treated animals n = 14, mean ± SEM
[11] = STZ-treated and non-STZ-treated rats
[12] = STZ-treated rats, oral trientine 7 weeks

Compound: CN(N=O)C(=O)N[C@H]1C(O)O[C@H](CO)[C@@H](O)[C@@H]1O (mixture of isomers) [STZ, streptozotocin]
Daily food consumption (Male Wistar rats; STZ 55 mg.kg^−1 i.v., n = 14, mean ± SEM): *58 ± 1 g
Heart rate (HR), control period prior to infusion (Male Wistar rats; STZ-treated anaesthetized rats): 287±11 bpm
Heart weight/body weight (Male Wistar rats; [10]): *2.93 ± 0.05 mg · g^−1
Wet heart weight (Male Wistar rats; [10]): *0.78 ± 0.02 g

Compound: NCCNCCNCCN [trientine hydrochloride]
Stability of stock solutions on storage (copper chelation efficacy) ([1]; hydrochloride): without appreciable deterioration in efficacy

Compound: Oc1c(I)cc(Cl)c2cccnc12 [clioquinol]
Brain Aβ / amyloid deposition (Tg2576 transgenic mice): decrease in brain Aβ deposition

Maximum decrease of mean arterial pressure (MAP) [6]: 19±4 mmHg and 19+/−4 mmHg
Stability of stock solutions on storage (copper chelation efficacy) [1]: remains active as a copper chelator
Change in ability to chelate copper on storage ([8]; 100 mM in deionized water, 4° C. dark, 21° C. dark, 21° C. daylight): no detectable change
Effect of room light on copper chelation ([8]; 100 mM solution, 21° C., daylight): no detectable detrimental effect
Myocardium of trientine-treated non-STZ-treated rats [9]: appeared normal
Compound: NCCNCCNCCN [trientine]
Adverse events during 6 months' therapy (humans with T2DM; 600 mg twice-daily oral): No significant trientine-related adverse events
Δ diastolic blood pressure (humans with T2DM; 6 months − baseline, mean): −3.9 mmHg
Δ systolic blood pressure (humans with T2DM; 6 months − baseline, mean): −3.5 mmHg
Δ urinary copper (humans with T2DM; 6 months − baseline, mean): -0.83 µmol/L
Δ left ventricular mass/body surface area (humans with T2DM; 6 months − baseline, mean, P<0.01 vs. placebo): −5.56** g · m^−2
Decrease of mean LV mass (humans with T2DM; diabetics, 600 mg twice-daily oral, 6 months): 5%
Cu content of heart tissue ([2]; STZ-treated rats): 24.7 ± 1.5 μg · g^−1 dry tissue
Fe content of heart tissue ([2]; STZ-treated rats): 186 ± 46 μg · g^−1 dry tissue
Effect on copper content of cardiac tissue ([2]; acute i.v. increasing doses, normal and STZ-treated rats): no significant effect
Cu content of heart tissue ([2]; non-STZ-treated rats): 27.1 ± 1.0 μg · g^−1 dry tissue
Fe content of heart tissue ([2]; non-STZ-treated rats): 235 ± 39 μg · g^−1 dry tissue
Brain Aβ / amyloid deposition (Tg2576 transgenic mice): did not inhibit amyloid deposition
Urine excretion versus saline ([3]; 100 mg.kg^−1 dose, non-STZ-treated rats): increased urine excretion
Total copper excreted over the entire duration of the experiment versus saline controls [3, 11]: significantly increased
Urinary iron excretion versus saline [3, 11]: not increased
Serum Cu ([3]; STZ-treated rats, n = 6): 7.56 ± 0.06 μg · μl^−1 × 10^−4
Serum Fe ([3]; STZ-treated rats, n = 6): 35.7 ± 7.98 μg · μl^−1 × 10^−4
Urinary Cu excretion versus equivalent volume of saline ([3]; all doses 0.1, 1.0, 10, 100 mg.kg^−1 i.v., STZ-treated and non-STZ-treated rats): excreted more Cu
Urinary copper excretion per gram of bodyweight, STZ-treated versus non-STZ-treated ([3]; following trientine administration): greater per gram of bodyweight in STZ-treated
Serum Cu ([3]; non-STZ-treated rats, n = 4): 7.11 ± 0.41 μg · μl^−1 × 10^−4
Serum Fe ([3]; non-STZ-treated rats, n = 4): 33.6 ± 1.62 μg · μl^−1 × 10^−4
Mean trientine-evoked urinary Cu-excretion ([4]; T2DM, oral 2.4 g once-daily): 5.8 µmol/day
Urinary Cu, diabetic and control groups ([4]; day 7, oral 2.4 g): increased urinary Cu in both groups
Mean trientine-evoked urinary Cu-excretion ([4]; non-diabetic controls, oral 2.4 g once-daily): 4.1 µmol/day
Increase of trientine-evoked urinary Cu-excretion in T2DM compared to non-diabetic controls ([4]; oral 2.4 g once-daily): 40%
Trientine-evoked urinary Fe excretion ([4]; oral 2.4 g once-daily): no corresponding increase
Urinary Cu excretion, trientine-treated T2DM versus trientine-treated non-diabetic controls ([4]; single 2.4-g oral dose, day 7, P<0.05): significantly greater
Cardiac function versus untreated STZ-treated controls [5, 12]: improved cardiac function
Cardiac output with increasing pre-load, after-load constant [5, 12]: restored to Sham values
Trientine treated STZ-treated hearts still functioning when 50% of untreated STZ-treated hearts had failed ([5]; increasing after-load, constant pre-load): about 90%
Effect on cardiac performance of normal animals ([5]; non-STZ-treated rats, oral trientine 7 weeks): no adverse effects on cardiac performance
Blood glucose profile versus untreated comparison group ([5]; oral trientine in drinking water weeks 7-13): made no difference
heart:body weight ratio in STZ-treated animals ([5]; oral trientine weeks 7-13 versus untreated STZ): small but significant improvement
Mean CU Losses, fecal, Post-Tment ([7]; control): 2.045 mg/day
Mean CU Losses, fecal, Post-Tment ([7]; diabetic): 1.965 mg/day
Effect on fecal outputs of Zn, Fe, Ca, Mg, Mn, Cr, Mb or Se ([7]; oral 2.4 g once daily): Neither diabetes nor trientine had measurable effects
Myocardial (LV) histology in STZ-treated rats ([9]; 7 weeks oral trientine): improved; also recorded: substantive recovery of LV structure

Compound: NCCNCCNCCN [trientine dihydrochloride]
Cu excretion in urine versus saline at lowest dose ([3]; 0.1 mg.kg^−1 parenteral, rats): significantly increased
Effect on fecal Cu output ([7]; normal humans and those with T2DM, dihydrochloride): does not result in increased excretion of copper in the feces
